This passage reports IC50 results from US9694016B2 (Novartis AG, priority 2013, dated 2017).

The test deals with b-Raf (V600E) (Homo sapiens (Human), UniProt P15056, V600E). The conditions noted are these: read-out: b-Raf IC-50; AlphaScreen, 60 min pre-incubation, 3 hours reaction.
Sequence of b-Raf (V600E) (P15056 whole entry V600E): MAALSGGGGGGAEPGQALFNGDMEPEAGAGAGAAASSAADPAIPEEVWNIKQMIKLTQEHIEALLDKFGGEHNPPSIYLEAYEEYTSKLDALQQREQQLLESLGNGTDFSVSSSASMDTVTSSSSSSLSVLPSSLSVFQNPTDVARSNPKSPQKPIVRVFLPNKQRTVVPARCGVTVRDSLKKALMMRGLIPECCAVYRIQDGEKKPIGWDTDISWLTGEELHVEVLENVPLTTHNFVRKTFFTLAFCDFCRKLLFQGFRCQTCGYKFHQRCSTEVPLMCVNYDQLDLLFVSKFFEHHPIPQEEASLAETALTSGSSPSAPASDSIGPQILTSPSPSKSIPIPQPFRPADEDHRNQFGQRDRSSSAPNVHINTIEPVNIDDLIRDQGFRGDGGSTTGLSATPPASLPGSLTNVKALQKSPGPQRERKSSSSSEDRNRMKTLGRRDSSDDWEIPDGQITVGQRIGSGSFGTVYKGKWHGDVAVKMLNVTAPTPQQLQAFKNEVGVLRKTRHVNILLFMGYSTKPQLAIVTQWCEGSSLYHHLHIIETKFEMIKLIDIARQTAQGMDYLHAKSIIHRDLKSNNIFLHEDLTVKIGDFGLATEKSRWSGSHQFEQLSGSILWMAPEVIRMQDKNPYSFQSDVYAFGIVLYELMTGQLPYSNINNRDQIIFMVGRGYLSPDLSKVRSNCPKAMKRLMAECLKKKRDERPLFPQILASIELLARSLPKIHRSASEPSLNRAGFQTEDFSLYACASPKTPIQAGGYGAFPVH
On to `Cc1ccc(NC(=O)c2cccc(-c3nnco3)c2)cc1-c1cc(N2CCOCC2)c(=O)n(C)n1` [Example 639, N-(4-methyl-3-(1-methyl-5-morpholino-6-oxo-1,6-dihydropyridazin-3-yl)phenyl)-3-(1,3,4-oxadiazol-2-yl)benzamide], for which the IC50 came to 7.3 nM. Regarding `Cc1ccc(NC(=O)c2ccnc(C(C)(C)C#N)c2)cc1-c1cc(N2CCOCC2)c(=O)n(C)n1` [Example 640, 2-(2-cyanopropan-2-yl)-N-(4-methyl-3-(1-methyl-5-morpholino-6-oxo-1,6-dihydropyridazin-3-yl)phenyl)isonicotinamide], the IC50 turned out to be 5.4 nM.

Consider `CCn1cc(C(=O)Nc2ccc(C)c(-c3cc(N4CCOCC4)c(=O)n(C)n3)c2)cc(C(F)(F)F)c1=O` [Example 641, 1-ethyl-N-(4-methyl-3-(1-methyl-5-morpholino-6-oxo-1,6-dihydropyridazin-3-yl)phenyl)-6-oxo-5-(trifluoromethyl)-1,6-dihydropyridine-3-carboxamide], for which the IC50 worked out at 2.7 nM.

On to `CCc1cc(C(=O)Nc2ccc(C)c(-c3cc(N4CCOCC4)c(=O)n(C)n3)c2)ccn1` [Example 642, 2-ethyl-N-(4-methyl-3-(1-methyl-5-morpholino-6-oxo-1,6-dihydropyridazin-3-yl)phenyl)isonicotinamide], for which the IC50 stood at 1.4 nM. Consider `CCC(F)(F)c1cc(C(=O)Nc2ccc(C)c(-c3cc(N4CCOCC4)c(=O)n(C)n3)c2)ccn1` [Example 643, 2-(1,1-difluoropropyl)-N-(4-methyl-3-(1-methyl-5-morpholino-6-oxo-1,6-dihydropyridazin-3-yl)phenyl)isonicotinamide], for which the IC50 was 1.3 nM. Consider `Cc1ccc(NC(=O)c2cnnc(C3CC3)c2)cc1-c1cc(N2CCOCC2)c(=O)n(C)n1` [Example 644, 6-cyclopropyl-N-(4-methyl-3-(1-methyl-5-morpholino-6-oxo-1,6-dihydropyridazin-3-yl)-phenyl)pyridazine-4-carboxamide], for which the IC50 came out at 2.9 nM. The result for `Cc1ncc(NC(=O)c2ccnc(C(C)(C)C#N)c2)cc1-c1cc(N2CCOCC2)c(=O)n(C)n1` [Example 645, 2-(2-cyanopropan-2-yl)-N-(6-methyl-5-(1-methyl-5-morpholino-6-oxo-1,6-dihydropyridazin-3-yl)pyridin-3-yl)isonicotinamide] reads 53.4 nM; that for `Cc1ccc(NC(=O)c2cnnc(C(C)(C)C#N)c2)cc1-c1cc(N2CCOCC2)c(=O)n(C)n1` [Example 646, 6-(2-cyanopropan-2-yl)-N-(4-methyl-3-(1-methyl-5-morpholino-6-oxo-1,6-dihydropyridazin-3-yl)phenyl)pyridazine-4-carboxamide], 8.4 nM. With `Cc1ccc(NC(=O)c2cnnc(C(F)(F)F)c2)cc1-c1cc(N2CCOCC2)c(=O)n(C)n1` [Example 647, N-(4-methyl-3-(1-methyl-5-morpholino-6-oxo-1,6-dihydropyridazin-3-yl)phenyl)-6-(trifluoromethyl)pyridazine-4-carboxamide], the IC50 was found to be 5.3 nM. Take `Cc1ccc(NC(=O)c2ccnc(C3COC3)c2)cc1-c1cc(N2CCOCC2)c(=O)n(C)n1` [Example 648, N-(4-methyl-3-(1-methyl-5-morpholino-6-oxo-1,6-dihydropyridazin-3-yl)phenyl)-2-(oxetan-3-yl)isonicotinamide]: the IC50 turned out to be 4.5 nM. In the case of `CCN1CCN(c2cc(C(=O)Nc3ccc(C)c(-c4cc(N5CCOCC5)c(=O)n(C)n4)c3)cc(C(F)(F)F)c2)CC1` [Example 649, 3-(4-ethylpiperazin-1-yl)-N-(4-methyl-3-(1-methyl-5-morpholino-6-oxo-1,6-dihydropyridazin-3-yl)phenyl)-5-(trifluoromethyl)benzamide], the IC50 amounted to 4.6 nM. Consider `Cc1ccc(NC(=O)c2cccc(CC#N)c2)cc1-c1cc(N2CCOCC2)c(=O)n(C)n1` [Example 652, 3-(cyanomethyl)-N-(4-methyl-3-(1-methyl-5-morpholino-6-oxo-1,6-dihydropyridazin-3-yl)phenyl)benzamide], for which the IC50 is 6.7 nM.

With `Cc1ccc(NC(=O)c2ccnc(C(C)(C)F)c2)cc1-c1cc(N2CCOCC2)c(=O)n(C)n1` [Example 654, 2-(2-fluoropropan-2-yl)-N-(4-methyl-3-(1-methyl-5-morpholino-6-oxo-1,6-dihydropyridazin-3-yl)phenyl)isonicotinamide], the IC50 was determined as 1.7 nM. Turning to `Cc1ccc(NC(=O)c2cccc(C(F)F)c2)cc1-c1cc(N2CCOCC2)c(=O)n(C)n1` [Example 655, 3-(difluoromethyl)-N-(4-methyl-3-(1-methyl-5-morpholino-6-oxo-1,6-dihydropyridazin-3-yl)phenyl)benzamide], the IC50 turned out to be 2.2 nM. With `Cc1ccc(NC(=O)c2ccnc(C(C)(F)F)c2)cc1-c1cc(N2CCOCC2)c(=O)n(C)n1` [Example 657, 2-(1,1-difluoroethyl)-N-(4-methyl-3-(1-methyl-5-morpholino-6-oxo-1,6-dihydropyridazin-3-yl)phenyl)isonicotinamide], the IC50 is 1.1 nM. The result for `Cc1ccc(NC(=O)c2ccnc(C(F)(F)F)c2)cc1-c1cc(N2CCOCC2)c(=O)n(C)n1` [Example 658, N-(4-methyl-3-(1-methyl-5-morpholino-6-oxo-1,6-dihydropyridazin-3-yl)phenyl)-2-(trifluoromethyl)isonicotinamide] reads 3.1 nM; that for `Cc1ccc(NC(=O)c2ccnc(C3(C#N)CC3)c2)cc1-c1cc(N2CCOCC2)c(=O)n(C)n1` [Example 659, 2-(1-cyanocyclopropyl)-N-(4-methyl-3-(1-methyl-5-morpholino-6-oxo-1,6-dihydropyridazin-3-yl)phenyl)isonicotinamide], 0.7 nM. For the compound `Cc1ccc(NC(=O)c2cc(CN(C)C)cc(C(F)(F)F)c2)cc1-c1cc(N2CCOCC2)c(=O)n(C)n1` [Example 661, 3-((dimethylamino)methyl)-N-(4-methyl-3-(1-methyl-5-morpholino-6-oxo-1,6-dihydropyridazin-3-yl)phenyl)-5-(trifluoromethyl)benzamide], the IC50 was determined as 4.3 nM.

`Cc1ccc(NC(=O)c2ccnc(C(C)(C)F)c2)cc1-c1cc(N2CCOC[C@@H]2C)c(=O)n(C)n1` [Example 662, (S)-2-(2-fluoropropan-2-yl)-N-(4-methyl-3-(1-methyl-5-(3-methylmorpholino)-6-oxo-1,6-dihydropyridazin-3-yl)phenyl)isonicotinamide]: the IC50 is 3.9 nM. In the case of `Cc1ccc(NC(=O)c2ccnc(C(C)(C)C#N)c2)cc1-c1cc(N2CCOC[C@@H]2C)c(=O)n(C)n1` [Example 663, (S)-2-(2-cyanopropan-2-yl)-N-(4-methyl-3-(1-methyl-5-(3-methylmorpholino)-6-oxo-1,6-dihydropyridazin-3-yl)phenyl)isonicotinamide] it was 9.2 nM. On to `Cc1ccc(NC(=O)c2ccnc(C(C)(F)F)c2)cc1-c1cc(N2CCOC[C@@H]2C)c(=O)n(C)n1` [Example 664, (S)-2-(1,1-difluoroethyl)-N-(4-methyl-3-(1-methyl-5-(3-methylmorpholino)-6-oxo-1,6-dihydropyridazin-3-yl)phenyl)isonicotinamide], for which the IC50 was found to be 2.9 nM. `Cc1ccc(NC(=O)c2ccnc(C(C)(C)F)c2)cc1-c1cc(N2CCOC(C)(C)C2)c(=O)n(C)n1` [Example 665, N-(3-(5-(2,2-dimethylmorpholino)-1-methyl-6-oxo-1,6-dihydropyridazin-3-yl)-4-methylphenyl)-2-(2-fluoropropan-2-yl)isonicotinamide]: the IC50 stood at 6.7 nM. Consider `Cc1ccc(NC(=O)c2ccnc(C(C)(C)C#N)c2)cc1-c1cc(N2CCOC(C)(C)C2)c(=O)n(C)n1` [Example 666, 2-(2-cyanopropan-2-yl)-N-(3-(5-(2,2-dimethylmorpholino)-1-methyl-6-oxo-1,6-dihydropyridazin-3-yl)-4-methylphenyl)isonicotinamide], for which the IC50 came to 7.8 nM. In the case of `Cc1ccc(NC(=O)c2ccnc(C(C)(F)F)c2)cc1-c1cc(N2CCOC(C)(C)C2)c(=O)n(C)n1` [Example 667, 2-(1,1-difluoroethyl)-N-(3-(5-(2,2-dimethylmorpholino)-1-methyl-6-oxo-1,6-dihydropyridazin-3-yl)-4-methylphenyl)isonicotinamide] it was 3.4 nM; in that of `Cc1ccc(NC(=O)c2ccnc(C(C)(C)F)c2)cc1-c1cc(N2C3CCC2COC3)c(=O)n(C)n1` [Example 668, N-(3-(5-(3-oxa-8-azabicyclo[3.2.1]octan-8-yl)-1-methyl-6-oxo-1,6-dihydropyridazin-3-yl)-4-methylphenyl)-2-(2-fluoropropan-2-yl)isonicotinamide], 4.1 nM; in that of `Cc1ccc(NC(=O)c2ccnc(C(C)(C)C#N)c2)cc1-c1cc(N2C3CCC2COC3)c(=O)n(C)n1` [Example 669, N-(3-(5-(3-oxa-8-azabicyclo[3.2.1]octan-8-yl)-1-methyl-6-oxo-1,6-dihydropyridazin-3-yl)-4-methylphenyl)-2-(2-cyanopropan-2-yl)isonicotinamide], 10 nM.

As for `Cc1ccc(NC(=O)c2ccnc(C(C)(F)F)c2)cc1-c1cc(N2C3CCC2COC3)c(=O)n(C)n1` [Example 670, N-(3-(5-(3-oxa-8-azabicyclo[3.2.1]octan-8-yl)-1-methyl-6-oxo-1,6-dihydropyridazin-3-yl)-4-methylphenyl)-2-(1,1-difluoroethyl)isonicotinamide], the IC50 turned out to be 2.8 nM.

For `Cc1ccc(NC(=O)c2ccnc(C(C)(C)C#N)c2)cc1-c1cc(N2CCOCC2(C)C)c(=O)n(C)n1` [Example 671, 2-(2-cyanopropan-2-yl)-N-(3-(5-(3,3-dimethylmorpholino)-1-methyl-6-oxo-1,6-dihydropyridazin-3-yl)-4-methylphenyl)isonicotinamide], the IC50 was 25.5 nM. Regarding `Cc1ccc(NC(=O)c2ccnc(C(C)(C)C#N)c2)cc1-c1cc(N2CCOC[C@H]2C)c(=O)n(C)n1` [Example 672, (R)-2-(2-cyanopropan-2-yl)-N-(4-methyl-3-(1-methyl-5-(3-methylmorpholino)-6-oxo-1,6-dihydropyridazin-3-yl)phenyl)isonicotinamide], the IC50 came to 15.8 nM.
